Data as given in US20250025443A1, “COMPOUNDS AND METHODS FOR TREATING CORONA VIRUSES” (CLEAR CREEK BIO, INC., priority 2021, published 2025).
Like-named read-outs stand apart in the source and are kept apart here.

Biological target: SARS-CoV-2 Papain-Like Protease (PLpro) (Severe acute respiratory syndrome coronavirus 2 (2019-nCoV) (SARS-CoV-2), UniProt P0DTD1)
Assay: biochemical
Conditions: read-out: PLpro IC50
[1] = PLpro enzymatic fluorescence assay, class symbols
[2] = SARS-CoV-2 PLpro enzymatic fluorescence assay

Row | SMILES | IC50 [1] [nM] | IC50 [2] [nM]
1 | Cc1cc(-c2cc(C3(NC(=O)c4cc(OC[C@@H]5CCN5C)ccc4C)CC3)c3cccnc3c2)c(C)o1 [Compound 671, (S)—N-(1-(7-(2,5-Dimethylfuran-3-yl)quinolin-5-yl)cyclopropyl)-2-methyl-5-((1-methylazetidin-2-yl)methoxy)benzamide] | < 100 | –
2 | Cc1ccc(OCC2CCN2C)cc1C(=O)NC1(c2cc(N(C)C)cc3ccccc23)CC1 (stereo not shown) [Compound 495, N-(1-(3-(Dimethylamino)naphthalen-1-yl)cyclopropyl)-2-methyl-5-((1-methylazetidin-2-yl)methoxy)benzamide] | – | < 100
3 | Cc1ccc(OCCN(C)C)cc1C(=O)NC1(c2ccccc2-c2ccncc2)CC1 [Compound 266, 5-(2-(Dimethylamino)ethoxy)-2-methyl-N-(1-(2-(pyridin-4-yl)phenyl)cyclopropyl)benzamide] | – | > 5000
4 | Cc1ccc(N2CC(N)C2)cc1C(=O)NC1(c2cccc3ccccc23)CC1 [Compound 464, 5-(3-Aminoazetidin-1-yl)-2-methyl-N-(1-(naphthalen-1-yl)cyclopropyl)benzamide] | < 100 | –
5 | Cc1ccc(NC2CNC2)cc1C(=O)N1Cc2ccc(-c3ccc(CN4CCCC4)s3)cc2C1 [Compound 111, (5-(Azetidin-3-ylamino)-2-methylphenyl)(5-(5-(pyrrolidin-1-ylmethyl)thiophen-2-yl)isoindolin-2-yl)methanone] | – | > 5000
6 | Cc1ccc(OC[C@@H]2CCN2C)cc1C(=O)NC1(c2cc(-c3cncc(N4CCOCC4)c3)cc3ncccc23)CC1 [Compound 699, (S)-2-Methyl-5-((1-methylazetidin-2-yl)methoxy)-N-(1-(7-(5-morpholinopyridin-3-yl)quinolin-5-yl)cyclopropyl)benzamide] | < 100 | –
7 | Cc1ccc(OC2CC(N)C2)cc1C(=O)NC1(c2cccc3ccccc23)CC1 (stereo not shown) [Compound 265, 5-(3-Aminocyclobutoxy)-2-methyl-N-(1-(naphthalen-1-yl)cyclopropyl)benzamide] | – | 100 to 1000
8 | COc1cc(C2(NC(=O)c3cc(OC[C@@H]4CCN4C)ccc3C)CC2)c2ccc(Cl)nc2c1 [Compound 617, (S)-N-(1-(2-Chloro-7-methoxyquinolin-5-yl)cyclopropyl)-2-methyl-5-((1-methylazetidin-2-yl)methoxy)benzamide] | < 100 | –
9 | Cc1ccc(OC[C@@H]2CCN2C)cc1C(=O)NC1(c2cc(C3=CCCC3)cc3ncccc23)CC1 [Compound 609, (S)-N-(1-(7-(Cyclopent-1-en-1-yl)quinolin-5-yl)cyclopropyl)-2-methyl-5-((1-methylazetidin-2-yl)methoxy)benzamide] | < 100 | –
10 | Cc1ncc(-c2cc(C3(NC(=O)c4cc(OC[C@@H]5CCN5C)ccc4C)CC3)c3cccnc3c2Cl)s1 [Compound 814, (S)-N-(1-(8-Chloro-7-(2-methylthiazol-5-yl)quinolin-5-yl)cyclopropyl)-2-methyl-5-((1-methylazetidin-2-yl)methoxy)benzamide] | < 100 | –
11 | Cc1ccc2c(C3(NC(=O)c4cc(OC[C@@H]5CCN5C)ccc4C)CC3)cc(N3CC(C(F)(F)F)C3)cc2n1 [Compound 810, (S)-2-Methyl-N-(1-(2-methyl-7-(3-(trifluoromethyl)azetidin-1-yl)quinolin-5-yl)cyclopropyl)-5-((1-methylazetidin-2-yl)methoxy)benzamide] | < 100 | –
12 | Cc1ccc(OCCN(C)C)c(F)c1C(=O)NC1(c2cccc3ccccc23)CC1 [Compound 311, 3-(2-(Dimethylamino)ethoxy)-2-fluoro-6-methyl-N-(1-(naphthalen-1-yl)cyclopropyl)benzamide] | – | 100 to 1000
13 | COc1cc(C2(NC(=O)c3cc(O[C@H]4CC[C@@H]5CN(C(=O)OC(C)(C)C)CCN5C4)ccc3C)CC2)c2cccnc2c1 [Compound 776] | < 100 | –
14 | Cc1ccc(OC[C@@H]2CCN2C)cc1C(=O)NC1(c2cc(-c3ccc(F)cc3)cc3ncccc23)CC1 [Compound 678, (S)—N-(1-(7-(4-Fluorophenyl)quinolin-5-yl)cyclopropyl)-2-methyl-5-((1-methylazetidin-2-yl)methoxy)benzamide] | < 100 | –
15 | Cc1ccc(OC[C@@H]2CCN2C)cc1C(=O)NC1(c2cc(-n3cccn3)cc3ncccc23)CC1 [Compound 619, (S)-N-(1-(7-(1H-Pyrazol-1-yl)quinolin-5-yl)cyclopropyl)-2-methyl-5-((1-methylazetidin-2-yl)methoxy)benzamide] | < 100 | –
16 | Cc1ccc(N)cc1C(=O)NC(c1cccc2ccccc12)C(F)F (stereo not shown) [Compound 185, 5-Amino-N-(2,2-difluoro-1-(naphthalen-1-yl)ethyl)-2-methylbenzamide] | – | 1000 to 5000
17 | Cc1ccc(OC2CCCCN(C)C2)cc1C(=O)NC1(c2cccc3ccccc23)CC1 (stereo not shown) [Compound 293, 2-methyl-5-((1-methylazepan-3-yl)oxy)-N-(1-(naphthalen-1-yl)cyclopropyl)benzamide] | – | 100 to 1000
18 | Cc1cc2nc(C3CNC3)[nH]c2cc1C(=O)N[C@H](C)c1cccc2ccccc12 [Compound 131, (R)-2-(Azetidin-3-yl)-5-methyl-N-(1-(naphthalen-1-yl)ethyl)-1H-benzo[d]imidazole-6-carboxamide] | – | 1000 to 5000
19 | CON(C)C(=O)c1cc2cc(C)c(C(=O)NC3(c4cccc5ccccc45)CC3)cc2[nH]1 [Compound 225] | – | 100 to 1000

Row | SMILES | IC50 [1] [nM] | IC50 [2] [nM]
20 | Cc1ccc(OC[C@@H]2CCN2C)cc1C(=O)NC1(c2cc(OCC(F)(F)F)cc3ncccc23)CC1 [Compound 795, (S)-2-Methyl-5-((1-methylazetidin-2-yl)methoxy)-N-(1-(7-(2,2,2-trifluoroethoxy)quinolin-5-yl)cyclopropyl)benzamide] | < 100 | –
21 | Cc1cc2cc(CN)[nH]c2cc1C(=O)NC1(c2ccccc2)CC1 [Compound 246, 2-(Aminomethyl)-5-methyl-N-(1-phenylcyclopropyl)-1H-indole-6-carboxamide] | – | > 5000
22 | CC(=O)NCCOc1ccc(C)c(C(=O)NC2(c3cccc4ccccc34)CC2)c1 [Compound 425, 5-(2-Acetamidoethoxy)-2-methyl-N-(1-(naphthalen-1-yl)cyclopropyl)benzamide] | – | 100 to 1000
23 | Cc1ccc(OCCN(C)C)cc1C(=O)NC1(c2cccc(-c3ccccc3)c2)CC1 [Compound 291, N-(1-([1,1′-Biphenyl]-3-yl)cyclopropyl)-5-(2-(dimethylamino)ethoxy)-2-methylbenzamide] | – | 100 to 1000
24 | Cc1ccc(OCCN(C)C)cc1C(=O)NC1(c2cccc(C)c2C)CC1 [Compound 318, 5-(2-(Dimethylamino)ethoxy)-N-(1-(2,3-dimethylphenyl)cyclopropyl)-2-methylbenzamide] | – | 1000 to 5000
25 | Cc1ccc(OC[C@@H]2CCN2C)cc1C(=O)NC1(c2cc(-c3ccc(CNC4CCCC4)s3)cc3ncccc23)CC1 [Compound 752, (S)—N-(1-(7-(5-((Cyclopentylamino)methyl)thiophen-2-yl)quinolin-5-yl)cyclopropyl)-2-methyl-5-((1-methylazetidin-2-yl)methoxy)benzamide] | < 100 | –
26 | Cc1cc2cc(CN)[nH]c2cc1C(=O)N[C@H](C)c1cccc2ccccc12 [Compound 148, (R)-2-(Aminomethyl)-5-methyl-N-(1-(naphthalen-1-yl)ethyl)-1H-indole-6-carboxamide] | – | 100 to 1000
27 | CC(c1cccc2ccccc12)N1CC(CC(=O)NCc2cccc(F)c2)C1 (stereo not shown) [Compound 143, N-(3-Fluorobenzyl)-2-(1-(1-(naphthalen-1-yl)ethyl)azetidin-3-yl)acetamide] | – | > 5000
28 | Cc1ccc(OCCN2CC(F)C2)cc1C(=O)NC1(c2cccc3ccccc23)CC1 [Compound 300, 5-(2-(3-Fluoroazetidin-1-yl)ethoxy)-2-methyl-N-(1-(naphthalen-1-yl)cyclopropyl)benzamide] | – | < 100
29 | COc1cc(C2(NC(=O)c3cc(OC[C@@H]4CCN4C)ccc3C)CC2)c2ccccc2n1 [Compound 555, (S)-N-(1-(2-Methoxyquinolin-4-yl)cyclopropyl)-2-methyl-5-((1-methylazetidin-2-yl)methoxy)benzamide] | – | < 100
30 | Cc1ccc(OCC2CCN2C)cc1C(=O)NC1(c2nccc3ccccc23)CC1 (stereo not shown) [Compound 454, N-(1-(Isoquinolin-1-yl)cyclopropyl)-2-methyl-5-((1-methylazetidin-2-yl)methoxy)benzamide] | 100 to 1000 | –
31 | Cc1ccc(OCCN(C)C)cc1C(=O)NC1(c2ccc(Br)cc2)CC1 [Compound 258, N-(1-(4-Bromophenyl)cyclopropyl)-5-(2-(dimethylamino)ethoxy)-2-methylbenzamide] | – | > 5000
32 | Cc1ccc(OC[C@@H]2CCN2)cc1C(=O)NC1(c2cc(-c3cnoc3)cc3ncccc23)CC1 [Compound 714, (S)-5-(Azetidin-2-ylmethoxy)-N-(1-(7-(isoxazol-4-yl)quinolin-5-yl)cyclopropyl)-2-methylbenzamide] | < 100 | –
33 | Cc1ccc(OC[C@@H]2CCN2C)cc1C(=O)NC1(c2cc(-c3ccc(Cl)s3)cc3ncccc23)CC1 [Compound 623, (S)-N-(1-(7-(5-Chlorothiophen-2-yl)quinolin-5-yl)cyclopropyl)-2-methyl-5-((1-methylazetidin-2-yl)methoxy)benzamide] | < 100 | –
34 | Cc1ccc(OCC2CCN2C)cc1C(=O)NC1(c2cc(C(N)=O)cc3ccccc23)CC1 (stereo not shown) [Compound 520, 4-(1-(2-Methyl-5-((1-methylazetidin-2-yl)methoxy)benzamido)cyclopropyl)-2-naphthamide] | – | < 100
35 | Cc1ccc(OCC(C)N)cc1C(=O)NC1(c2cc(-c3ccc(F)cc3)cc3ccccc23)CC1 (stereo not shown) [Compound 480, 5-(2-Aminopropoxy)-N-(1-(3-(4-fluorophenyl)naphthalen-1-yl)cyclopropyl)-2-methylbenzamide] | < 100 | –
36 | Cc1ccc(OCC2CCN2C)cc1C(=O)NC1(c2c(C(C)C)ccc3ccccc23)CC1 (stereo not shown) [Compound 457, N-(1-(2-Isopropylnaphthalen-1-yl)cyclopropyl)-2-methyl-5-((1-methylazetidin-2-yl)methoxy)benzamide] | – | 100 to 1000
37 | Cc1cc2ccn(CC3CNC3)c2cc1C(=O)NC1(c2cccc3ccccc23)CC1 [Compound 239, 1-(Azetidin-3-ylmethyl)-5-methyl-N-(1-(naphthalen-1-yl)cyclopropyl)-1H-indole-6-carboxamide] | – | < 100
